According to US11976083B2, “Inhibitors of peptidylarginine deiminases” (Gilead Sciences, Inc., priority 2020, dated 2024):

biological target: T1, human PAD4 (Homo sapiens, UniProt Q9UM07); test: In vitro PAD4 BAEE biochemical assay; conditions: BAEE substrate 3 mM, 5 nM PAD4, 2 mM calcium chloride; geometric mean of multiple experiments
T1 construct: human PAD4 (NM_012387), A2-P663, was PCR amplified; His-SUMO (N, cleaved yes); made in house; host or cells: E. coli BL21(DE3)
How it was run: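 Ammonia produced by BAEE deimination (3 mM substrate, 2 h, 25 °C) was read as fluorescent isoindole after o-phthalaldehyde/DTT derivatization, ex 405 nm/em 535 nm. Human PAD4 at 5 nM final, 2 mM calcium, pH 7.6 MOPS; compound preincubated 30 min. IC50s, normalized to BB-Cl-Amidine and DMSO controls, were geometric-mean averaged.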

T1 sequence (Q9UM07 2-663): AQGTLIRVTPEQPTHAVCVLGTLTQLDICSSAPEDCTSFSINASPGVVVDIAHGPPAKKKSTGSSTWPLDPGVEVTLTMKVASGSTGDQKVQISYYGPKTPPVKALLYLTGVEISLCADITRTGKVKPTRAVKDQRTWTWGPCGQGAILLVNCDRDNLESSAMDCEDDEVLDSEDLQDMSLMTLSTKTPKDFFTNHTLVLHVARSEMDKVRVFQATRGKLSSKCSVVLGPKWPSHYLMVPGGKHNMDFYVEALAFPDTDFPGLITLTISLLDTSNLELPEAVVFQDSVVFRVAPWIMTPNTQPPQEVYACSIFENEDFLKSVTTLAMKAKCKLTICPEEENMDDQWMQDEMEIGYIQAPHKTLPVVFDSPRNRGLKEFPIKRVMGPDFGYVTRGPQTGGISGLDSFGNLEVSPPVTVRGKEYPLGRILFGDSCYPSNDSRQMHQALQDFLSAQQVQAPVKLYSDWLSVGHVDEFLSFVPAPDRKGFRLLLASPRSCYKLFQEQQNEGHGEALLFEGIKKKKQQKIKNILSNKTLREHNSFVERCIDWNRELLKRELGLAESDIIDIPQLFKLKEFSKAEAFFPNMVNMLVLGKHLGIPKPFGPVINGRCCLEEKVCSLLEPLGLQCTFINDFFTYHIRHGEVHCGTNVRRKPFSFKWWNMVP

Structure (SMILES) | IC50 [nM]
COc1cc(C(=O)N2CC[C@@H](OC)[C@@H](N)C2)cc2nc(-c3cc4ccc5nc4n3CC(F)(F)CCCCC(C)(C)C(=O)N[C@@H]5C)n(C)c12 [Example 608, (11~{R})-17-[5-[(3~{S}, 4~{R})-3-amino-4-methoxy-piperidine-1-carbonyl]-7-methoxy-1-methyl-benzimidazol-2-yl]-3,3-difluoro-8,8,11-trimethyl-1,10,19-triazatricyclo[10.5.2.0^ {15,18}]nonadeca-12,14,16,18-tetraen-9-one] | 115
COc1cc(C(=O)N2CC[C@@H](OC(F)F)[C@@H](N)C2)cc2nc(-c3cc4ccc5nc4n3CC(F)(F)CCCCC(C)(C)C(=O)N[C@@H]5C)n(C)c12 [Example 609, (11~{R})-17-[5-[(3~{S}, 4~{R})-3-amino-4-(difluoromethoxy)piperidine-1-carbonyl]-7-methoxy-1-methyl-benzimidazol-2-yl]-3,3-difluoro-8,8,11-trimethyl-1,10,19-triazatricyclo[10.5.2.0^ {15,18}]nonadeca-12,14,16,18-tetraen-9-one] | 172
COc1cc(C(=O)N2CC[C@@H](OC)[C@@H](N)C2)cc2nc(-c3cc4ccc5nc4n3CCCCCc3cnc(C)nc3C(=O)N[C@@H]5C)n(C)c12 [Example 610, (2~{R})-17-[5-[(3~{S},4~ {R})-3-amino-4-methoxy-piperidine-1-carbonyl]-7-methoxy-1-methyl-benzimidazol-2-yl]-2,7-dimethyl-3,6,8,16,22-pentazatetracyclo[14.5.2.0^ {5,10}.0^{19,23}]tricosa-1(21),5(10),6,8,17,19,22-heptaen-4-one] | 190
COc1cc(C(=O)N2CC[C@@H](OC)[C@@H](N)C2)cc2nc(-c3cc4ccc5nc4n3CCCCCCC3(COC3)C(=O)N[C@@H]5C)n(C)c12 [Example 611, (11~{R})-17-[5-[(3~{S}, 4-{R})-3-amino-4-methoxy-piperidine-1-carbonyl]-7-methoxy-1-methyl-benzimidazol-2-yl]-11-methyl-spiro[1,10,19-triazatricyclo[10.5.2.0^{15,18}]nonadeca-12,14,16,18-tetraene-8,3′-oxetane]-9-one] | 85
COc1cc(C(=O)N2CC[C@@H](OC(F)F)[C@@H](N)C2)cc2nc(-c3cc4ccc5nc4n3CCCCCc3nccnc3C(=O)N[C@@H]5C)n(C3CC3)c12 [Example 612, (2~{R})-17-[5-[(3~{S),4~{R})-3-amino-4-(difluoromethoxy)piperidine-1-carbonyl]-1-cyclopropyl-7-methoxy-benzimidazol-2-yl]-2-methyl-3,6,9,16,22-pentazatetracyclo [14.5.2.0^{5,10}.0^{19, 23}]tricosa-1(21),5(10), 6,8,17,19,22-heptaen-4-one] | 157
COc1cc(C(=O)N2CC[C@@H](OC(F)F)[C@@H](N)C2)cc2nc(-c3cc4ccc5nc4n3CCCCCCC3(COC3)C(=O)N[C@@H]5C)n(C)c12 [Example 613, (11~{R})-17-[5-[(3~{S},4~{R})-3-amino-4-(difluoromethoxy)piperidine-1-carbonyl]-7-methoxy-1-methyl-benzimidazol-2-yl]-11-methyl-spiro[1,10,19-triazatricyclo[10.5.2.0^ {15,18}]nonadeca-12,14,16,18-tetraene-8,3′-oxetane]-9-one] | 108
COc1cc(C(=O)N2CC[C@@H](OC)[C@@H](N)C2)cc2nc(-c3cc4ccc5nc4n3CC(F)(F)CCCCC3(CCC3)C(=O)N[C@@H]5C)n(C)c12 [Example 614, (11~{R})-17-[5-[(3~{S},4~ {R})-3-amino-4-methoxy-piperidine-1-carbonyl]-7-methoxy-1-methyl-benzimidazol-2-yl]-3,3-difluoro-11-methyl-spiro[1,10,19-triazatricyclo[10.5.2.0^ {15,18}]nonadeca-12,14,16,18-tetraene-8,1′-cyclobutane]-9-one] | 114
COc1cc(C(=O)N[C@H]2CNCC[C@@H]2F)cc2nc(-c3cc4ccc5nc4n3CCCCCC[C@H](OC)C(=O)N[C@@H]5C)n(C)c12 [Example 615, ˜{N}-[(3˜{S},4˜{S})-4-fluoro-3-piperidyl]-7-methoxy-2-[(8˜{S},11˜{R})-8-methoxy-11-methyl-9-oxo-1,10,19-triazatricyclo[10.5.2.0^{15,18}]nonadeca-12(19),13,15(18),16-tetraen-17-yl]-1-methyl-benzimidazole-5-carboxamide] | 94
COc1cc(C(=O)N[C@H]2CNCC[C@@H]2F)cc2nc(-c3cc4ccc5nc4n3CCCOC[C@@H]3C[C@H]3C(=O)N[C@@H]5C)n(C)c12 [Example 616, ~{N}-[(3~{S},4~{S})-4-fluoro-3-piperidyl]-7-methoxy-1-methyl-2-[(2~{R},5~{R},7~{R})-2-methyl-4-oxo-9-oxa-3,13,19-triazatetracyclo[11.5.2.0^ {5,7}.0^{16,20}]icosa-1(19),14,16(20), 17-tetraen-14-yl] benzimidazole-5-carboxamide] | 71
COc1cc(C(=O)N[C@H]2CNCC[C@@H]2F)cc2nc(-c3cc4ccc5nc4n3CCCCC[C@@]3(C)C[C@@H]3C(=O)N[C@@H]5C)n(C)c12 [Example 617, 2-[(2~{R},5~{S},7~{S})-2,7-dimethyl-4-oxo-3,13,19-triazatetracyclo[11.5.2.0^ {5,7}.0^{16,20}]icosa-1(19),14,16(20),17-tetraen-14-yl]-~{N}-[(3~ {S},4~{S})-4-fluoro-3-piperidyl]-7-methoxy-1-methyl-benzimidazole-5-carboxamide] | 1120
COc1cc(C(=O)N[C@H]2CNCC[C@@H]2F)cc2nc(-c3cc4ccc5nc4n3CCCCC[C@]3(C)C[C@H]3C(=O)N[C@@H]5C)n(C)c12 [Example 618, 2-[(2~{R},5~{R},7~{R})-2,7-dimethyl-4-oxo-3,13,19-triazatetracyclo[11.5.2.0^ {5,7}.0^{16,20}]icosa-1(19),14,16(20), 17-tetraen-14-yl]- ~{N}-[(3~{S},4~{S})-4-fluoro-3-piperidyl]-7-methoxy-1-methyl-benzimidazole-5-carboxamide] | 69
COc1cc(C(=O)N[C@H]2CNCC[C@@H]2F)cc2nc(-c3cc4ccc5nc4n3C/C=C(/F)COCCC(=O)N[C@@H]5C)n(C)c12 [Example 619, 2-[(3~{E},11~{R})-4-fluoro-11-methyl-9-oxo-6-oxa-1,10,19-triazatricyclo[10.5.2.0^ {15,18}]nonadeca-3,12(19),13,15(18), 16-pentaen-17-yl]- ~{N}-[(3~{S},4~{S})-4-fluoro-3-piperidyl]-7-methoxy-1-methyl-benzimidazole-5-carboxamide] | 38
COc1cc(C(=O)N2CCC[C@@H](N)C2)cc2nc(-c3cc4ccc5nc4n3C/C=C(/F)COCCC(=O)N[C@@H]5C)n(C)c12 [Example 620, (3~{E},11~{R})-17-[5-[(3~{R})-3-aminopiperidine-1-carbonyl]-7-methoxy-1-methyl-benzimidazol-2-yl]-4-fluoro-11-methyl-6-oxa-1,10,19-triazatricyclo[10.5.2.0^ {15,18}]nonadeca-3,12(19),13,15(18), 16-pentaen-9-one] | 36
COc1cc(C(=O)N[C@H]2CNCC[C@@H]2F)cc2nc(-c3cc4ccc5nc4n3CCCCCC[C@@H](OC)C(=O)N[C@@H]5C)n(C)c12 [Example 621, ~{N}-[(3~{S},4~{S})-4-fluoro-3-piperidyl]-7-methoxy-2-[(8~{R},11~ {R})-8-methoxy-11-methyl-9-oxo-1,10,19-triazatricyclo[10.5.2.0^ {15,18}]nonadeca-12(19),13,15(18),16-tetraen-17-yl]-1-methyl-benzimidazole-5-carboxamide] | 43
C[C@H]1NC(=O)CCOC[C@@H]2C[C@@H]2Cn2c(-c3nc4cc(C(=O)N[C@H]5CNCC[C@@H]5F)c(F)cc4n3C3CC3)cc3ccc1nc32 [Example 622, 1-cyclopropyl-6-fluoro-~ {N}-[(3~{S},4~{S})-4-fluoro-3-piperidyl]-2-[(3~{S},5~{R},12~{R})-12-methyl-10-oxo-7-oxa-1,11,20-triazatetracyclo[11.5.2.0^ {3,5}.0^{16,19}]icosa-13(20),14,16(19), 17-tetraen-18-yl] benzimidazole-5-carboxamide] | 59
CO[C@@H]1CCCCC(F)(F)Cn2c(-c3nc4cc(C(=O)N[C@H]5CNCC[C@@H]5F)c(F)cc4n3C)cc3ccc(nc32)[C@@H](C)NC1=O [Example 623, 2-[(8~{R},11~{R})-3,3-difluoro-8-methoxy-11-methyl-9-oxo-1,10,19-triazatricyclo[10.5.2.0^ {15,18}]nonadeca-12(19),13,15(18),16-tetraen-17-yl]-6-fluoro-~{N}-[(3~{S}, 4~{S})-4-fluoro-3-piperidyl]-1-methyl-benzimidazole-5-carboxamide] | 47
C[C@H]1NC(=O)[C@H]2C[C@@H]2CC(F)(F)CCCn2c(-c3nc4cc(C(=O)N[C@H]5CNCC[C@@H]5F)c(F)cc4n3C)cc3ccc1nc32 [Example 624, 2-[(2~{R},5~{S},7~{R})-9,9-difluoro-2-methyl-4-oxo-3,13,19-triazatetracyclo[11.5.2.0^ {5,7).0^{16,20}]icosa-1(19),14,16(20), 17-tetraen-14-yl]-6-fluoro-~{N}-[(3~{S},4~ {S})-4-fluoro-3-piperidyl]-1-methyl-benzimidazole-5-carboxamide] | 70
C[C@H]1NC(=O)[C@@H]2C[C@H]2CC(F)(F)CCCn2c(-c3nc4cc(C(=O)N[C@H]5CNCC[C@@H]5F)c(F)cc4n3C)cc3ccc1nc32 [Example 625, 2-[(2~{R},5~{R},7~{S})-9,9-difluoro-2-methyl-4-oxo-3,13,19-triazatetracyclo[11.5.2.0^ {5,7}.0^{16,20}]icosa-1(19),14,16(20),17-tetraen-14-yl]-6-fluoro-~ {N}-[(3~{S},4~{S})-4-fluoro-3-piperidyl]-1-methyl-benzimidazole-5-carboxamide] | 9
